Experiments:
AtSWEET12 = molecular target: T1, AtSWEET12 (Arabidopsis thaliana, UniProt O82587); test: Oocyte efflux assay: [14C]-sugar efflux from Xenopus oocytes expressing AtSWEET12; type: cell-based; settings: FIG. 4D
T1 construct: Primers for the full length ORF of AtSWEET11 (AtSWT11FattB1 and AtSWT11attB2) or AtSWEET12; expressed in transfected cells; host or cells: Xenopus oocytes injected with capped cRNA from pOO2-GW

[1] = molecular target: FRET sucrose sensor FLIPsuc90μΔ1V; settings: detection level of the sucrose sensor; cited from earlier work

T1 sequence (O82587 whole entry): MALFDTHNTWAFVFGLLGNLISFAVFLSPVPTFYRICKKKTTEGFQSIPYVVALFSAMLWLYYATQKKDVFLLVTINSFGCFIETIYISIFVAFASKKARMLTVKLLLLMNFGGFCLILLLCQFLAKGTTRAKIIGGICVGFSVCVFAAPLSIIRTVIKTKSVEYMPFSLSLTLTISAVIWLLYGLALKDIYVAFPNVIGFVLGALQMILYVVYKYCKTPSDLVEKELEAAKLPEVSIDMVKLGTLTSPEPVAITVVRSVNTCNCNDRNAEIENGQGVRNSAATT

OC[C@H]1O[C@H](O[C@H]2[C@H](O)[C@@H](O)C(O)O[C@@H]2CO)[C@H](O)[C@@H](O)[C@@H]1O (mixture of isomers) [Maltose, maltose]
Maltose efflux (AtSWEET12): undetectable

OC[C@H]1O[C@@](CO)(O[C@H]2O[C@H](CO)[C@@H](O)[C@H](O)[C@H]2O)[C@@H](O)[C@@H]1O [sucrose]
Kd [1]: ~90 µM
